Measurements: patent US6677277B1, “Substituted sulphonyl amino(thio)carbonyl compounds and their use as herbicides” (Bayer Aktiengesellschaft, priority 1996, dated 2004)

Legend:
Assay type in all cases: in vivo
Alopecurus [1] = assay: Pre-emergence test/greenhouse; conditions: after three weeks
Experimental: (§1) Pre-emergence Test Solvent: 5 parts by weight of acetone Emulsifier: 1 part by weight of alkylaryl polyglycol ether To produce a suitable preparation of active compound, 1 part by weight of active compound is mixed with the stated amount of solvent, the stated amount of emulsifier is added and the concentrate is diluted with water to the desired concentration. Seeds of the test plants are sown in normal soil. After about 24 hours, the soil is sprayed with the preparation of the active compound in such a way as to apply the particular amounts of active compound desired per unit area The concentration of the spray liquor is chosen so that the particular amounts of active compound desired are applied in 1000 l of water/ha. After three weeks, the degree of damage to the plants is rated in % damage in comparison to the development of the untreated control. The figures denote: [table]

Amaranthus = assay: Pre-emergence test/greenhouse; conditions: after three weeks
Experimental: as §1

Chenopodium = assay: Pre-emergence test/greenhouse; conditions: after three weeks
Experimental: as §1

Lolium [2] = assay: Pre-emergence test/greenhouse; conditions: after three weeks
Experimental: as §1

Maize = assay: Pre-emergence test/greenhouse; conditions: after three weeks
Experimental: as §1

Matricaria = assay: Pre-emergence test/greenhouse; conditions: after three weeks
Experimental: as §1

Solanum [3] = assay: Pre-emergence test/greenhouse; conditions: after three weeks
Experimental: as §1

Sorghum [4] = assay: Pre-emergence test/greenhouse; conditions: after three weeks
Experimental: as §1

weeds [5] = assay: Pre-emergence test; conditions: cf. Tables A-1 to A-5
Experimental: as §1

Alopecurus [6] = assay: Post-emergence test/greenhouse; conditions: after three weeks
Experimental: as §1, with “Post-emergence” for “Pre-emergence”, “Test plants which have a height” for “Seeds”, “5-15 cm” for “the test plants”, “are” for “are sown in normal soil. After about 24 hours, the soil is”, “area.” for “area”

Ipomoea = assay: Post-emergence test/greenhouse; conditions: for % damage, Ipomoea: after three weeks
Experimental: as §1, with “Post-emergence” for “Pre-emergence”, “Test plants which have a height” for “Seeds”, “5-15 cm” for “the test plants”, “are” for “are sown in normal soil. After about 24 hours, the soil is”, “area.” for “area”

Lolium [7] = assay: Post-emergence test/greenhouse; conditions: after three weeks
Experimental: as §1, with “Post-emergence” for “Pre-emergence”, “Test plants which have a height” for “Seeds”, “5-15 cm” for “the test plants”, “are” for “are sown in normal soil. After about 24 hours, the soil is”, “area.” for “area”

Solanum [8] = assay: Post-emergence test/greenhouse; conditions: post-emergence; for % damage, Solanum: after three weeks
Experimental: as §1, with “Post-emergence” for “Pre-emergence”, “Test plants which have a height” for “Seeds”, “5-15 cm” for “the test plants”, “are” for “are sown in normal soil. After about 24 hours, the soil is”, “area.” for “area”

Sorghum [9] = assay: Post-emergence test/greenhouse; conditions: post-emergence, after three weeks
Experimental: as §1, with “Post-emergence” for “Pre-emergence”, “Test plants which have a height” for “Seeds”, “5-15 cm” for “the test plants”, “are” for “are sown in normal soil. After about 24 hours, the soil is”, “area.” for “area”

Stellaria = assay: Post-emergence test/greenhouse; conditions: for % damage, Stellaria: after three weeks
Experimental: as §1, with “Post-emergence” for “Pre-emergence”, “Test plants which have a height” for “Seeds”, “5-15 cm” for “the test plants”, “are” for “are sown in normal soil. After about 24 hours, the soil is”, “area.” for “area”

Wheat = assay: Post-emergence test/greenhouse; conditions: 60 g ai./ha; for % damage, Wheat: after three weeks
Experimental: as §1, with “Post-emergence” for “Pre-emergence”, “Test plants which have a height” for “Seeds”, “5-15 cm” for “the test plants”, “are” for “are sown in normal soil. After about 24 hours, the soil is”, “area.” for “area”

Xanthium = assay: Post-emergence test/greenhouse; conditions: post-emergence; for % damage, Xanthium: after three weeks
Experimental: as §1, with “Post-emergence” for “Pre-emergence”, “Test plants which have a height” for “Seeds”, “5-15 cm” for “the test plants”, “are” for “are sown in normal soil. After about 24 hours, the soil is”, “area.” for “area”

weeds [10] = assay: Post-emergence test; conditions: cf. Tables B-1 to B-4
Experimental: as §1, with “Post-emergence” for “Pre-emergence”, “Test plants which have a height” for “Seeds”, “5-15 cm” for “the test plants”, “are” for “are sown in normal soil. After about 24 hours, the soil is”, “area.” for “area”

[11] = 60 g ai./ha, rated after three weeks vs untreated control

Row | SMILES | % damage, Alopecurus (Alopecurus [1]; 125 g ai./ha) [%] | % damage, Amaranthus (Amaranthus; 125 g ai./ha) [%] | % damage, Lolium (Lolium [2]; 125 g ai./ha) [%] | % damage, Maize (Maize; 125 g ai./ha) [%] | % damage, Matricaria (Matricaria; 125 g ai./ha) [%] | % damage, Solanum (Solanum [3]; 125 g ai./ha) [%] | % damage, Sorghum (Sorghum [4]; 125 g ai./ha) [%] | activity against weeds (weeds [5]) | % damage, Alopecurus (Alopecurus [6]; 60 g ai./ha) [%] | % damage, Ipomoea (Ipomoea; 60 g ai./ha) [%] | % damage, Lolium (Lolium [7]; 60 g ai./ha) [%] | % damage, Solanum (Solanum [8]; 60 g ai./ha) [%] | % damage, Sorghum (Sorghum [9]; 60 g ai./ha) [%] | % damage, Stellaria (Stellaria; 60 g ai./ha) [%] | % damage, Wheat (Wheat) [%] | % damage, Xanthium (Xanthium; 60 g ai./ha) [%] | activity against weeds (weeds [10]) | % damage, Alopecurus (Alopecurus [1]; 60 g ai./ha) [%] | % damage, Amaranthus (Amaranthus; 60 g ai./ha) [%] | % damage, Chenopodium (Chenopodium; 60 g ai./ha) [%] | other results
1 | CCOc1nn(C(=O)NS(=O)(=O)c2c(OC(F)(F)F)cccc2SCC)c(=O)n1C [Example 6] | 100 | 100 | 100 | 0 | 100 | 100 | 80 | very strong activity | 60 | 90 | 50 | 95 | 70 | 95 | 5 | 95 | very strong activity |  |  |  | % damage, Chenopodium (Chenopodium; 125 g ai./ha): 100%
2 | CCOc1nn(C(=O)NS(=O)(=O)c2c(OC)cccc2SCC)c(=O)n1C [Example 7] | 100 | 100 | 100 | 0 | 70 | 100 | 90 | very strong activity | 95 | 95 | 95 | 95 | 95 | 100 | 10 |  | very strong activity |  |  |  | % damage, Chenopodium (Chenopodium; 125 g ai./ha): 100%
3 | CCOc1nn(C(=O)NS(=O)(=O)c2c(SCC)cccc2C(F)(F)F)c(=O)n1C [Example 11] | 100 | 100 | 90 | 10 | 100 | 100 | 100 | very strong activity |  |  |  |  |  |  |  |  | very strong activity |  |  |  | % damage, Chenopodium (Chenopodium; 125 g ai./ha): 100%; Ipomoea, % damage (Ipomoea; [11]): 90%; Solanum, % damage (Solanum [8]; [11]): 70%; Stellaria, % damage (Stellaria; [11]): 90%; Wheat, % damage (Wheat; rated after three weeks vs untreated control): 0%; Xanthium, % damage (Xanthium; [11]): 90%
4 | CCOc1nn(C(=O)NS(=O)(=O)c2c(OC)cccc2SC)c(=O)n1C [Example 20] |  |  |  |  |  |  |  | very strong activity | 95 | 95 | 90 | 100 | 100 | 100 | 20 | 95 | very strong activity | 100 | 100 | 100 | % damage, Lolium (Lolium [2]; 60 g ai./ha): 95%; % damage, Maize (Maize; 60 g ai./ha): 0%; % damage, Matricaria (Matricaria; 60 g ai./ha): 100%; % damage, Solanum (Solanum [3]; 60 g ai./ha): 100%; % damage, Sorghum (Sorghum [4]; 60 g ai./ha): 100%
5 | COc1cccc(SC)c1S(=O)(=O)NC(=O)n1nc(OC)n(C)c1=O [Example 21] |  |  |  |  |  |  |  | very strong activity | 100 | 90 | 95 | 100 | 100 | 100 |  |  | very strong activity | 100 | 100 | 100 | % damage, Lolium (Lolium [2]; 60 g ai./ha): 100%; % damage, Maize (Maize; 60 g ai./ha): 20%; % damage, Matricaria (Matricaria; 60 g ai./ha): 90%; % damage, Solanum (Solanum [3]; 60 g ai./ha): 100%; % damage, Sorghum (Sorghum [4]; 60 g ai./ha): 100%
6 | CCc1nn(C(=O)NS(=O)(=O)c2c(OC)cccc2SC)c(=O)n1C [Example 22] | 100 | 100 | 100 | 30 | 60 | 100 | 80 | very strong activity | 90 | 80 | 90 | 80 | 95 | 90 |  |  | very strong activity |  |  |  | 
7 | CCSc1cccc(OC)c1S(=O)(=O)NC(=O)n1nc(OC)n(C)c1=O [Example 30] |  |  |  |  |  |  |  | very strong activity |  |  |  |  |  |  |  |  | very strong activity | 100 | 95 | 90 | % damage, Lolium (Lolium [2]; 60 g ai./ha): 100%; % damage, Maize (Maize; 60 g ai./ha): 0%; % damage, Matricaria (Matricaria; 60 g ai./ha): 95%; % damage, Solanum (Solanum [3]; 60 g ai./ha): 95%; % damage, Sorghum (Sorghum [4]; 60 g ai./ha): 95%; % damage, Alopecurus (Alopecurus [6]; 125 g ai./ha): 95%; % damage, Ipomoea (Ipomoea; 125 g ai./ha): 90%; % damage, Lolium (Lolium [7]; 125 g ai./ha): 90%; % damage, Solanum (Solanum [8]; 125 g ai./ha): 100%; % damage, Sorghum (Sorghum [9]; 125 g ai./ha): 100%; % damage, Stellaria (Stellaria; 125 g ai./ha): 100%; % damage, Xanthium (Xanthium; 125 g ai./ha): 100%
8 | CCc1nn(C(=O)NS(=O)(=O)c2c(OC(F)(F)F)cccc2SC)c(=O)n1C [Example 34] |  |  |  |  |  |  |  | very strong activity | 90 | 80 | 70 | 95 | 100 | 80 | 20 | 95 | very strong activity | 100 | 90 | 90 | % damage, Lolium (Lolium [2]; 60 g ai./ha): 80%; % damage, Maize (Maize; 60 g ai./ha): 20%; % damage, Solanum (Solanum [3]; 60 g ai./ha): 95%; % damage, Sorghum (Sorghum [4]; 60 g ai./ha): 90%
9 | CCOc1nn(C(=O)NS(=O)(=O)c2c(SC)cccc2SC)c(=O)n1C [Example 52] |  |  |  |  |  |  |  |  | 90 | 90 | 60 | 95 | 100 | 95 |  | 95 | very strong activity |  |  |  | 
